From patent publication US20240376120A1, “CAMPTOTHECIN COMPOUND, PREPARATION METHOD THEREFOR AND USE THEREOF” (priority 2021, published 2024) come the findings set out here.

What all share (type): cell-based
Experiment [1] deals with MCF-7 cells (human breast cancer cells). The experiment in a line: MCF-7 cell proliferation inhibitory assay (CellTiter-Glo). Conditions: Homo sapiens, MCF7, 72 h, read-out: Proliferation inhibition IC50. As for the experimental part:
• 1). […] Resuspend an appropriate amount of cell suspension to 4000 cells/100 μL according to the count, mixed well and then put the corresponding number of cells into a 96-well plate by pipette. • 3). Each hole of the edge was sealed with 100 μL DPBS and put into an incubator for culture. • 4). Day 1 drug addition: Prepare the storage solution of the compound to be tested 1 hour in advance. 24 h after plating, the culture medium was gradiently diluted to a concentration twice the final concentration of each group. Take out the plated cells from the incubator and add 100 μL of the corresponding 2-fold concentration medium to each well by pipette.
Day 1 detected: Take out the plate to be tested and an appropriate amount of CTG in advance and rewarm it at room temperature in the dark. 50 μL of CTG was added to each well at 24 h. Shake with the oscillator for 5 minutes, and after balancing in the dark for 5 minutes, detect the luminescence value with a microplate reader; The mixture was shaken for 5 min, and after equilibration in the dark for 5 min, the luminescence value was detected with ELISA. • 6). Day 4 detection: Take an appropriate amount of CTG 1 h in advance and rewarm it at room temperature in the dark. At the same time, take out the plate to be tested from the incubator and leave it to equilibrate at room temperature for 30 minutes; 72 h after adding the drug, 100 μL of culture medium was sucked out with pipette carefully from each cell well, and 50 μL of CTG was added. The mixture was shaken for 5 min, and after equilibration in the dark for 5 min, the luminescence value was detected with ELISA analyzer. • 7). Data analysis and processed.
Collect data and convert it into survival rate: Inhibition rate (%)=(100−(OD value of compound-OD value on the first day)/(OD value of control well-OD value on the first day))×100%
(§1) Input the compound into graphpad prism to obtain the corresponding IC50 value.
On the technique in general: Cellular ATP, detected with luciferase, serves as a proxy for viable cell number.

Experiment [2] concerns MDA-MB-231 cells (human breast cancer cells). The experiment in a line: MDA-MB-231 cell proliferation inhibitory assay (CellTiter-Glo). The conditions noted are these: Homo sapiens, MDA-MB-231, 72 h, read-out: Proliferation inhibition IC50. As for the experimental part:
(§2) • 1). […] Resuspend an appropriate amount of cell suspension to 3000 cells/100 μL according to the count, mixed well and then put the corresponding number of cells into a 96-well plate by pipette. • 3). Each hole of the edge was sealed with 100 μL DPBS and put into an incubator for culture. • 4). Day 1 drug addition: Prepare the storage solution of the compound to be tested 1 hour in advance. 24 h after plating, the culture medium was gradiently diluted to a concentration twice the final concentration of each group. Take out the plated cells from the incubator and add 100 μL of the corresponding 2-fold concentration medium to each well by pipette. • 5). Day 1 detected: Take out an appropriate amount of CTG 1 h in advance and the plate was allowed to equilibrate at room temperature for 30 min. 100 μL of CTG was added to each well and shaken for 5 mins, and then standed in the dark for 5 mins, the luminescence value was detected by ELISA. • 6). Day 4 detection: Take an appropriate amount of CTG 1 h in advance and rewarm it at room temperature in the dark. At the same time, take out the plate to be tested from the incubator and leave it to equilibrate at room temperature for 30 minutes; 72 h after adding the drug, 100 μL of culture medium was sucked out with pipette carefully from each cell well, and 100 μL of CTG was added. The mixture was shaken for 5 min, and after equilibration in the dark for 5 min, the luminescence value was detected with ELISA. • 7). Analyze data and write detailed experimental records.
as §1

Experiment [3] has as its system MDA-MB-435s cells (human melanoma cells). The experiment is described as follows: MDA-MB-435s cell proliferation inhibitory assay (CellTiter-Glo). The conditions noted are these: Homo sapiens, MDA-MB-435S, 72 h, read-out: Proliferation inhibition IC50. Here is the method:
as §2
Collect data and convert it into survival rate: Inhibition rate (%)=(100−(OD value of compound−OD value on the first day)/(OD value of control well-OD value on the first day))×100%
as §1

Regarding `CC[C@@]1(O)C(=O)OCc2c1cc1n(c2=O)Cc2c-1nc1cc(F)c(C(F)(F)F)cc1c2[C@H](C)N` [Example 34a], the IC50 came to 9.6 nM in experiment [1], 11.6 nM in experiment [2] and 4.37 nM in experiment [3].
As for `CC[C@@]1(O)C(=O)OCc2c1cc1n(c2=O)Cc2c-1nc1ccc(OC)cc1c2[C@@H](C)O` [Example 31d], the IC50 in experiment [1] was determined as 8.1 nM; in experiment [2], 8.3 nM; in experiment [3] it was 2.3 nM.
Taken in the same sequence, the figures for `CC[C@@]1(O)C(=O)OCc2c1cc1n(c2=O)Cc2c-1nc1cc(F)c(C)cc1c2[C@@H](C)NCCN(C)C` [Example 25b] were 35.1 nM, 60.9 nM and 9.6 nM.
Taken in the same sequence, the figures for `CC[C@@]1(O)C(=O)OCc2c1cc1n(c2=O)Cc2c-1nc1ccc(O)cc1c2[C@H](C)N` [Example 6] were 8.4 nM, 1100 nM and 36.8 nM.
For `CC[C@@]1(O)C(=O)OCc2c1cc1n(c2=O)Cc2c-1nc1cc(F)c(C)cc1c2[C@@H](C)NS(C)(=O)=O` [Example 26a], the IC50 amounted to 13.3 nM in experiment [1], 89.2 nM in experiment [2] and 2.8 nM in experiment [3].
`CC[C@@]1(O)C(=O)OCc2c1cc1n(c2=O)Cc2c-1nc1cc(F)c(C)cc1c2[C@H](C)NC(C)=O` [Compound 1f-2]: the values for the IC50 in experiment [1], in experiment [2] and in experiment [3] were 11.6 nM, 74.2 nM and 3.5 nM, respectively.
Taken in the same sequence, the figures for `CC[C@@]1(O)C(=O)OCc2c1cc1n(c2=O)Cc2c-1nc1cc(F)c(C)cc1c2[C@@H](C)N1CCN(C)CC1` [Example 42b] were 6.6 nM, 75.6 nM and 2.56 nM.
For the molecule `CC[C@@]1(O)C(=O)OCc2c1cc1n(c2=O)Cc2c-1nc1cc(F)c(C)cc1c2[C@@H]1CCN1` [Example 38a], the IC50 is 5.6 nM in experiment [1], 16.6 nM in experiment [2] and 1.12 nM in experiment [3].
As to `CC[C@@]1(O)C(=O)OCc2c1cc1n(c2=O)Cc2c-1nc1cc3c(cc1c2[C@H](C)N)OCCO3` [Example 36a], the IC50 in experiment [1] amounted to 15.2 nM; in experiment [2] it was 26.3 nM; in experiment [3] it was 6.33 nM.
In the same order, the values of `CC[C@@]1(O)C(=O)OCc2c1cc1n(c2=O)Cc2c-1nc1cc(F)c(C)cc1c2[C@H]1CCN1` [Example 38b] are 2 nM, 6.2 nM and 0.65 nM.
On to `CC[C@@]1(O)C(=O)OCc2c1cc1n(c2=O)Cc2c-1nc1cc(F)c(F)cc1c2[C@H](C)N` [Example 33a], for which the IC50 in experiment [1] came to 6.5 nM; in experiment [2] it was 10.9 nM; in experiment [3], 2.36 nM.
For the molecule `CC[C@@]1(O)C(=O)OCc2c1cc1n(c2=O)Cc2c-1nc1cc(F)c(C(F)(F)F)cc1c2[C@@H](C)N` [Example 34b], the IC50 in experiment [1] was 4.2 nM; in experiment [2], 8.8 nM; in experiment [3] it was 2.85 nM.
Turning to `CC[C@@]1(O)C(=O)OCc2c1cc1n(c2=O)Cc2c-1nc1cc(F)c(C)cc1c2[C@H](C)N(C)C` [Example 22], the IC50 in experiment [1] was 9.3 nM; in experiment [2] it was 60.8 nM; in experiment [3], 5.6 nM.
In the same order, the values of `CC[C@@]1(O)C(=O)OCc2c1cc1n(c2=O)Cc2c-1nc1cc(F)c(C)cc1c2[C@H](C)N1CCNCC1` [Example 41a] are 28.6 nM, 100 nM and 5.12 nM.
Take `CC[C@@]1(O)C(=O)OCc2c1cc1n(c2=O)Cc2c-1nc1cc(F)c(C)cc1c2[C@H](N)CO` [Example 39b]: the IC50 in experiment [1] worked out at 4.6 nM; in experiment [2], 9.1 nM; in experiment [3], 1.65 nM.
Turning to `CC[C@@]1(O)C(=O)OCc2c1cc1n(c2=O)Cc2c-1nc1cc(F)c(C)cc1c2[C@H](C)NC(=O)[C@@H](O)C(F)(F)F` [Example 19], the IC50 in experiment [1] is 15.2 nM; in experiment [2], 261 nM; in experiment [3], 15.3 nM.
As to `CC[C@@]1(O)C(=O)OCc2c1cc1n(c2=O)Cc2cc3ccccc3nc2-1` [Camptothecin], the results for the IC50 in experiment [1] and in experiment [3] were 42.2 nM and 10.2 nM, respectively.
